“And” between values parts separate entries of the source, which are not always exact repeats. Equal values may be shown once.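 Following 48 hours of exposure in 96-well plates, responses at five concentrations were used to interpolate endpoints linearly. GI50 is the concentration that inhibits growth by half. TGI denotes the concentration required for complete inhibition of growth.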
What was measured:
Assay in all cases: NCI-60 cell line screen, 48 h
A549 NSCLC = test system: A549 NSCLC
CCRF-CEM leukemia = test system: CCRF-CEM leukemia
OVCAR-4 ovarian = test system: OVCAR-4 ovarian
RXF 393 renal = test system: RXF 393 renal
SF-268 CNS = test system: SF-268 CNS
SNB-75 CNS = test system: SNB-75 CNS
BT-549 breast = test system: BT-549 breast
MCF7 breast = test system: MCF7 breast
MDA-MB-435 = test system: MDA-MB-435
HOP-92 NSCLC = test system: HOP-92 NSCLC

Compound | TGI (A549 NSCLC) | TGI (CCRF-CEM leukemia) [µM] | TGI (OVCAR-4 ovarian) | TGI (RXF 393 renal) | TGI (SF-268 CNS) [µM] | TGI (SNB-75 CNS) | GI50 (A549 NSCLC) [µM] | GI50 (BT-549 breast) [µM] | TGI (BT-549 breast) [µM] | GI50 (CCRF-CEM leukemia) [µM] | GI50 (MCF7 breast) [µM] | GI50 (MDA-MB-435) [µM] | TGI (MDA-MB-435) [µM] | GI50 (OVCAR-4 ovarian) [µM] | GI50 (RXF 393 renal) [µM] | GI50 (SNB-75 CNS) [µM] | TGI (HOP-92 NSCLC) | GI50 (HOP-92 NSCLC) [µM] | TGI (MCF7 breast) [µM] | GI50 (SF-268 CNS) [µM]
COC1(OC)CCC2(C)OC(c3ccccc3)C1O2 (configuration not stated) | > 100 µM | > 100 | > 100 µM | > 100 µM | > 100 | > 100 µM |  |  |  |  |  |  |  |  |  |  |  |  |  | 
CN(C)C/C=C/C(=O)Nc1ccc(C(=O)Nc2cccc(Nc3ncc(Cl)c(-c4c[nH]c5ccccc45)n3)c2)cc1 | > 100 µM | > 100 |  | 0.0397 µM |  | 0.101 µM | 0.0963 | 0.0336 | 0.42 | < 0.01 | < 0.0116 | 0.0352 | 0.274 | 0.021 | 0.0157 | 0.0316 |  |  |  | 
C=C1C2CCCC1C1(S(C)(=O)=O)CCCCC21O (configuration not stated) | > 100 µM |  | > 100 µM |  |  | > 100 µM |  |  |  |  |  |  |  |  |  |  |  |  |  | 
O=C(CC(=O)N1N=C(n2ccc3ccccc32)CC1c1ccccc1)Nc1ccccc1Cl (configuration not stated) | > 100 µM | > 100 | > 100 µM | > 100 µM | > 100 | > 100 µM |  |  |  |  |  |  |  |  |  |  | > 100 µM |  |  | 
CC1CN1c1c(C(=O)/C=C/c2ccc(F)cc2)c(-c2ccccc2)nn(C)c1=O (configuration not stated) | 47.5 µM | 48.8 | 42.7 µM | 22 µM | 30.4 | 28.7 µM |  |  |  |  |  |  |  |  |  |  | 23.2 µM |  |  | 
Cc1cc(NS(=O)(=O)c2ccc(NC(=O)c3cccc4c(Nc5ccc(S(=O)(=O)Nc6cc(C)on6)cc5)c5ccc(Cl)cc5nc34)cc2)no1 | > 100 µM | > 100 | > 100 µM | > 100 µM | > 100 | 65.2 µM |  |  |  |  |  |  |  |  |  |  | 80.5 µM |  |  | 
CS(=O)(=O)ON1C(=O)c2ccc(N)cc2C1=O | > 100 µM | > 76.7 | > 100 µM | > 71 µM | > 95.7 | > 100 µM |  |  |  |  |  |  |  |  |  |  | > 100 µM |  |  | 
O=C1CCC2(c3ccccc3)OCC([C@@H](O)c3ccccc3)N12 (some centres not stated) | > 100 µM | > 100 | > 100 µM | > 100 µM | > 100 | > 100 µM |  |  |  |  |  |  |  |  |  |  | > 100 µM |  |  | 
N#C/C(=C\c1ccc(O)c(O)c1)C(=O)NCc1cccc(C(F)(F)F)c1 | 90 µM |  | 74.4 µM | 84.5 µM | 42.1 | 59.2 µM | 15.1 | 5.99 | 34.4 |  | 19.8 | 4.28 | 18 | 15.1 | 17.3 | 13.6 | 26.8 µM | 3.2 | > 100 | 13.7
CC[C@@]1(O)C(=O)OCc2c1cc1n(c2=O)Cc2cc3cc(O)ccc3nc2-1 | 3.93 µM and 2.32 µM |  | 0.441 µM and 3.17 µM | 0.165 µM and 0.222 µM |  | 0.206 µM and 0.107 µM | 0.0813 |  | 26.6 |  |  |  | 1.09 | 0.224 | 0.0311 |  | 0.107 µM and 0.513 µM | 0.0239 |  | 0.0192
Nc1nc(N)c2c(Cl)c(CNc3ccc(Cl)c(Cl)c3)ccc2n1 | 14.5 µM | 12.1 | 16.9 µM | 7.26 µM | 15.7 | 18.4 µM |  |  | 19.1 |  |  |  | 17.5 |  |  |  | 9.36 µM |  |  | 
COc1c(CC(C)=O)c2ccccc2n1C(C)=O | > 100 µM | > 100 | > 100 µM | > 100 µM |  | > 100 µM |  |  |  |  |  |  |  |  |  |  | > 100 µM |  |  | 
O=c1[nH]c(-c2ccccc2)nc2cc([N+](=O)[O-])c(/C(Cl)=C/c3ccccc3)cc12 | > 100 µM |  | 49.5 µM | 72.7 µM | > 100 | 53.1 µM |  |  |  |  |  |  |  |  |  |  | 35.6 µM |  |  | 
Cc1[nH]c2ccccc2c1/C=C/c1c(C)[nH]c2ccccc12 | > 100 µM | > 100 | > 100 µM | > 100 µM |  | > 100 µM |  |  |  |  |  |  |  |  |  |  |  |  |  | 
CCN1C[C@@H](C)n2c(c(O)c3c(=O)n(Cc4ccc(F)c(Cl)c4)nc(C(=O)NC)c32)C1=O | > 100 µM | > 100 | 44.6 µM |  | 39.8 | 7.12 µM | 3.14 | 3.49 | > 100 | 3.57 | 3.26 | 3.21 | > 100 | 3.18 |  | 2.28 | 4.91 µM | 1.7 | 65.7 | 3.4
O=C(CCl)N1CCN(c2ccccc2)CC1 | 43.3 µM | > 100 | 32.9 µM | 35.2 µM | 33 | 32.5 µM |  |  |  |  |  |  |  |  |  |  | 36.2 µM |  | 42.4 | 
CCP(C)(=O)CC | > 100 µM | > 100 | > 100 µM | > 100 µM | > 100 | > 100 µM |  |  |  |  |  |  |  |  |  |  | > 100 µM |  |  | 
CC(C)(C)c1cc(Cc2ccc(S(C)(=O)=O)cc2)c(O)c(C(C)(C)C)c1 | 24.2 µM | 30.5 | 28.1 µM | 26.1 µM | 25.9 | 28 µM |  |  |  |  |  |  |  |  |  |  |  |  |  | 
CC(=O)NNc1nc(C)c(C(=O)/C=C/c2ccc(N(C)C)cc2)s1 | > 100 µM | > 100 |  | > 100 µM | > 100 | > 100 µM |  |  |  |  |  |  |  |  |  |  | > 100 µM |  |  | 
Cc1cc(NS(=O)(=O)c2ccc(-c3cnc(C4CC4)o3)cc2)ccc1Cl | 14.9 µM | > 41.1 | 19.5 µM | 3.13 µM | 19.9 | 0.643 µM | 0.437 | 1.06 | 16.6 | 0.274 | 0.0708 |  |  | 1.86 | 0.173 | 0.12 | 10.1 µM | 0.472 | 12.2 | 2.19
CN(C)CC1CCCC/C1=N\OC(=O)c1ccccc1 (configuration not stated) | > 100 µM | > 100 | > 100 µM | > 100 µM | > 100 | > 100 µM |  |  |  |  |  |  |  |  |  |  | > 100 µM |  |  | 
CCN(CC)CCOc1ccc(/C(=C(\C)Cc2ccc(OC)cc2)c2ccc(O)cc2)cc1 | 3.56 µM | 5.1 | 9.91 µM | 2.91 µM | 4.33 | 3.38 µM | 1.83 |  |  | 2.19 | 0.145 | 1.68 | 3.15 | 2.95 | 1.51 | 1.58 | 2.61 µM | 0.588 | 2.3 | 1.86
